Results published in publication PMC5314825 (Journal of Pharmacy & Bioallied Sciences, 2016).

Biological target: aldose reductase (AR) (Capra hircus, UniProt A0A452EAQ3)
Assay: NADPH oxidation at […] nm with xylose as substrate
Format: cell-based
Settings: read-out: % inhibition at 4.5 μg/ml

O=c1c(O)c(-c2ccc(O)c(O)c2)oc2cc(O)cc(O)c12 [quercetin]
inhibition at 4.5 µg/mL: 64.6%
